One series concerns the target T1, CYP450 2C9 (Homo sapiens, UniProt P11712).
T1 construct: pooled human liver microsomes; from tissue; host or cells: pooled human liver microsomes
Put plainly: CYP inhibition in pooled human liver microsomes. The class given is in vitro ADME. As to the method: (§1) Cytochrome P450 (CYP) assays were conducted as previously described.[41] In brief, RNB-61 was incubated at a range of concentrations with the following components: pooled human liver microsomes, CYP probe substrate around the reported Km, and NADPH with a final concentration: 1 mM in 100 mM sodium phosphate buffer (pH 7.4). The conditions were optimized for a linear metabolic rate for the probe substrate reactions. The analysis of the samples was carried out by LC-MS/MS. The assays generated two endpoints: IC50 (μM) and percent inhibition at the highest acceptable test concentration (typically 50 μM; lower if the highest concentration data are rejected due to insolubility). […] (GSH) adduct formation data was assessed as reported in a previous study.[42] Briefly, RNB-61 was incubated with human liver microsomes to form reactive metabolites, and glutathione was added as a nucleophile to convert the reactive metabolites into stable conjugates that could be analyzed by MS.

A further series addresses T2, CYP450 2D6 (Homo sapiens, UniProt P10635).
T2 construct: pooled human liver microsomes; from tissue; host or cells: pooled human liver microsomes
Put plainly: CYP inhibition in pooled human liver microsomes. The series is classed as in vitro ADME. The protocol: as §1

The next series deals with T3, CYP450 3A4 (Homo sapiens, UniProt P08684).
T3 construct: pooled human liver microsomes; from tissue; host or cells: pooled human liver microsomes
Put plainly: CYP inhibition in pooled human liver microsomes. The class given is in vitro ADME. The protocol:
as §1
Background: Microsomes from liver hold many membrane-bound enzymes, among them those of drug oxidation.

Series [1] in a line: Microsomal clearance. The series is classed as in vitro ADME. The following applies: rat, rat microsomes.
The target of a further series is FAAH (Homo sapiens, UniProt O00519). Put plainly: Endocannabinoid target profiling: FAAH. The class given is biochemical. The following applies: screening concentration 10 μM.
In the next series the target is T4, human Q63R variant CB2R (Homo sapiens, UniProt P34972, Q63R).
T4 construct: expressed in transfected cells; host or cells: CHO cells
Put plainly: cAMP assay in CHO cells. The class given is cell-based. The following applies: mean ± SD. (Cyclic AMP is a second messenger, typically raised through Gs and lowered through Gi signalling.)

The next series deals with GPR55 (Homo sapiens, UniProt Q9Y2T6). In words: Endocannabinoid target profiling: GPR55. The following applies: Table S1; read-out: GPR55 (Ki, IC50).
Series [2] has as its target T5, human wild type CB2R (Homo sapiens, UniProt P34972). Put plainly: β-arrestin2 recruitment assay (Pathhunter). The series is classed as cell-based. On the set-up: host or cells: CHO cells (Pathhunter).
A further series has as its target T6, mouse CB2R (Mus musculus, UniProt P47936).
T6 construct: expressed in transfected cells; host or cells: CHO cells
In words: cAMP assay in CHO cells. The settings on record: mean ± SD. The series is classed as cell-based.

Series [3] can be described thus: Microsomal clearance. The class given is in vitro ADME. The following applies: human, human microsomes; Table 1.
The target of a further series is T7, rat CB2R (Rattus norvegicus, UniProt Q9QZN9).
T7 construct: expressed in transfected cells; host or cells: CHO cells
In words: cAMP assay in CHO cells. The class given is cell-based. The settings on record: mean ± SD.

The target in the next series is ABHD6 (Homo sapiens, UniProt Q9BV23). In words: Endocannabinoid target profiling: ABHD6. The class given is biochemical.
A further series addresses TRPV1 (Homo sapiens, UniProt Q8NER1). In words: Endocannabinoid target profiling: TRPV1. The settings on record: Table S1; read-out: TRPV1 (Ki, IC50).
A further series can be described thus: GSH adduct formation. The class given is in vitro ADME, human. As to the method:
as §1

In series [4] the test system is endocannabinoid membrane transporter (EMT). Put plainly: Endocannabinoid target profiling: cellular AEA uptake. The class given is cell-based.
The target in series [5] is T5, human wild type CB2R. Put plainly: [35S]GTPγS binding assay (G-protein activation). The series is classed as biochemical. On the set-up: host or cells: CHO cells (Pathhunter). (In general: Binding of GTPγS marks nucleotide exchange on a G protein.)
[6] abbreviates: expressed as percentage, compared with CP55,940.

Several values for one entry are separate records, joined by “and”; a condition that tells them apart may be missing. Equal values may be shown once. Entries after “also recorded” stand apart in the source; their conditions may differ. Bounds are passed on as bounds.

T5 sequence (P34972 whole entry): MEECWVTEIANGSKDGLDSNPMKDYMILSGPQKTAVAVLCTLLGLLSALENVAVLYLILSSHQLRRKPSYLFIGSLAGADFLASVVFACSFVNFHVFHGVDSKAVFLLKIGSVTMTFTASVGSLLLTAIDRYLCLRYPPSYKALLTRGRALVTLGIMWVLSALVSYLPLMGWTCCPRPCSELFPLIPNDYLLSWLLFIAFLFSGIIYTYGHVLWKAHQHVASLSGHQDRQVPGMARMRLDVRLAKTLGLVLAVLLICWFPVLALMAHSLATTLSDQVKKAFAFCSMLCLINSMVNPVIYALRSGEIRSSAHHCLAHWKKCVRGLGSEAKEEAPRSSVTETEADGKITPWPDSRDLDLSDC
Chain of ABHD6 (Q9BV23 whole entry, species assumed): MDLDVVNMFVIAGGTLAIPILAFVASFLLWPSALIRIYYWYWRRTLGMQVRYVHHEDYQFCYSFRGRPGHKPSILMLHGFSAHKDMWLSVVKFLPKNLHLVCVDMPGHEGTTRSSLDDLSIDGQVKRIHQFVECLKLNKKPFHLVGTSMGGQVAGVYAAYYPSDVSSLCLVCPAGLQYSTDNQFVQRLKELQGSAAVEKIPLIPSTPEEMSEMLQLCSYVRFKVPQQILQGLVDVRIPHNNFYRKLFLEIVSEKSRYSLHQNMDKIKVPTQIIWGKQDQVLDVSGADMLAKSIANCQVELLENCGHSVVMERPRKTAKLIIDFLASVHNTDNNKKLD
T6 sequence (P47936 whole entry): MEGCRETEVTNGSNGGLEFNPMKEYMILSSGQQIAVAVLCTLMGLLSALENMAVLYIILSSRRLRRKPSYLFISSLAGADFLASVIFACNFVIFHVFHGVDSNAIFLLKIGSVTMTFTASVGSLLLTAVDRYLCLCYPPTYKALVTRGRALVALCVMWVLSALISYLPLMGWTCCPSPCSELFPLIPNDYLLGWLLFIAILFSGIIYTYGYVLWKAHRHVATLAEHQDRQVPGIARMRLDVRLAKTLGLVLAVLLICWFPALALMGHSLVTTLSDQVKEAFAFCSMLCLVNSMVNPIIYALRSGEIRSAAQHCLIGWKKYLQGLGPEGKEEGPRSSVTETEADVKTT
T1 sequence (P11712 whole entry): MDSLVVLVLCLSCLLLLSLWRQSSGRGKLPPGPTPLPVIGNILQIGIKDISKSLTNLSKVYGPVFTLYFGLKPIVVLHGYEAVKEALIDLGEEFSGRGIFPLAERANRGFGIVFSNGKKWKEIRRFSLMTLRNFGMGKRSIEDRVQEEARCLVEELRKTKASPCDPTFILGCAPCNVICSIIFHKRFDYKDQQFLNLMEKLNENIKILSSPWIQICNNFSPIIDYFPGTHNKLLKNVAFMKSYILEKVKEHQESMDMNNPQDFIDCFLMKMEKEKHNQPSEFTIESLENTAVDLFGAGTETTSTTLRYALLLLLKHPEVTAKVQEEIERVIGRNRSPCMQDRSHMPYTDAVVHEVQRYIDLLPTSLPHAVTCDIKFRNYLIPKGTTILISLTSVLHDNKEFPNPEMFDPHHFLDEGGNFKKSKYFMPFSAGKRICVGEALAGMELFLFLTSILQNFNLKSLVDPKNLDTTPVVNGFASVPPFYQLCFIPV
Chain of FAAH (O00519 whole entry): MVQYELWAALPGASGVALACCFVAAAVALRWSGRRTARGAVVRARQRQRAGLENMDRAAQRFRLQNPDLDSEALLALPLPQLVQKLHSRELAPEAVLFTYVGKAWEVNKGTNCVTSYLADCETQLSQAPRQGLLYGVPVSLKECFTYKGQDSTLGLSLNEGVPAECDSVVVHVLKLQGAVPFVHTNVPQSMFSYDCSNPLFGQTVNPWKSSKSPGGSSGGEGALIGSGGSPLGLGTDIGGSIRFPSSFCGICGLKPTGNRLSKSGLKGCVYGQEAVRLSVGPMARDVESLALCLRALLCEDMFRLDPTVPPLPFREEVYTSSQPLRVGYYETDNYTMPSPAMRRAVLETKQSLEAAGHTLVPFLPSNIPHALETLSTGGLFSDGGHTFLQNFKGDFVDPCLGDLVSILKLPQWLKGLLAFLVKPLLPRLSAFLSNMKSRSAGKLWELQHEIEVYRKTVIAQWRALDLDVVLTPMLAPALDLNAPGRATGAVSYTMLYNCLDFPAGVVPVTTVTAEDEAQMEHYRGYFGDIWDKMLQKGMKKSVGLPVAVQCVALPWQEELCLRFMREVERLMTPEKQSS
T4 sequence (P34972 whole entry Q63R): as the sequence (P34972 whole entry) above, with Q63R counted along it
Chain of TRPV1 (Q8NER1 whole entry, species assumed): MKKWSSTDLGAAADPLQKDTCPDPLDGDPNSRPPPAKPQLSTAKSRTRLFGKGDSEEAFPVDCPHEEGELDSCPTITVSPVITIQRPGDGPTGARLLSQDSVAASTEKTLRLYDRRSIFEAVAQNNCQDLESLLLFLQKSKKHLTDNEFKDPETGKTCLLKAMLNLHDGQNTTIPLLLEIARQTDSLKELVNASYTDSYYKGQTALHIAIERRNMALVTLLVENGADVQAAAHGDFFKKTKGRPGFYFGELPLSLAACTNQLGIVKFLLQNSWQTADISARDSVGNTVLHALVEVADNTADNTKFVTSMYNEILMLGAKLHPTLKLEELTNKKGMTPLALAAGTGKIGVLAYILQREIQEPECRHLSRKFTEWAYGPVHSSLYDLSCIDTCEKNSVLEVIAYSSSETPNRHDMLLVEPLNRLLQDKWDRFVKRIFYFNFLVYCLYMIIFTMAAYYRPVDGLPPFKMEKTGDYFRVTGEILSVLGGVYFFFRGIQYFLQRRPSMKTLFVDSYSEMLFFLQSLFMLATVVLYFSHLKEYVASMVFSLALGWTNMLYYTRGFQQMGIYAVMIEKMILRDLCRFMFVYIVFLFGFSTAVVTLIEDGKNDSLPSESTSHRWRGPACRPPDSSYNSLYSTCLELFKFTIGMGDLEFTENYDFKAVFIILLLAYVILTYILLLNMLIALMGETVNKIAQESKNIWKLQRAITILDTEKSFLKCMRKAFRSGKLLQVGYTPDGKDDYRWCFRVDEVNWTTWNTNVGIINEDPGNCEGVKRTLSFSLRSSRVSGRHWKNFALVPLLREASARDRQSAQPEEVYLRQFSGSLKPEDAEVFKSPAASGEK
T3 sequence (P08684 whole entry): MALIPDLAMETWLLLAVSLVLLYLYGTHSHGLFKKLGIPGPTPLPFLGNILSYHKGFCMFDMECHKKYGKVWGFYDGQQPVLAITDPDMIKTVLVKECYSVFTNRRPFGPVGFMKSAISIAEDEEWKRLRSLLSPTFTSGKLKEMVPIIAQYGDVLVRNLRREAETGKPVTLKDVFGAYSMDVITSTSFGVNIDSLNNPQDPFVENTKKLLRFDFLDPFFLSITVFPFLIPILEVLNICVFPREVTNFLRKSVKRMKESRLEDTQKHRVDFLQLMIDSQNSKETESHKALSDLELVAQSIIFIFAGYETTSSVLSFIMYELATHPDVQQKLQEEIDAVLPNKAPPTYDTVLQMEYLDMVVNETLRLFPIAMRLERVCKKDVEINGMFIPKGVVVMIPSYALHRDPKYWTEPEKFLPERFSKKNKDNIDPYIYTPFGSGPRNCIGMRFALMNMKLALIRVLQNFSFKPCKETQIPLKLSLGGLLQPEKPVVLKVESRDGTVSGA
Chain of GPR55 (Q9Y2T6 whole entry, species assumed): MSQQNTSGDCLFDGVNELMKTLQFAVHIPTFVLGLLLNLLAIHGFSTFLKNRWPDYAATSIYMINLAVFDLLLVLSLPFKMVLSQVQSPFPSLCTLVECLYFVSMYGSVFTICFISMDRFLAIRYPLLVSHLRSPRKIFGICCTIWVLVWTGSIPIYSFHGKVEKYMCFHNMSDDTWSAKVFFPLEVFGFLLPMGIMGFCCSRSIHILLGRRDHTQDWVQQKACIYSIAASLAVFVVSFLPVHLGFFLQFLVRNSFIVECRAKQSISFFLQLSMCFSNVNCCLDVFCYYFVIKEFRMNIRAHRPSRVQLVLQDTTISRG
T7 sequence (Q9QZN9 whole entry): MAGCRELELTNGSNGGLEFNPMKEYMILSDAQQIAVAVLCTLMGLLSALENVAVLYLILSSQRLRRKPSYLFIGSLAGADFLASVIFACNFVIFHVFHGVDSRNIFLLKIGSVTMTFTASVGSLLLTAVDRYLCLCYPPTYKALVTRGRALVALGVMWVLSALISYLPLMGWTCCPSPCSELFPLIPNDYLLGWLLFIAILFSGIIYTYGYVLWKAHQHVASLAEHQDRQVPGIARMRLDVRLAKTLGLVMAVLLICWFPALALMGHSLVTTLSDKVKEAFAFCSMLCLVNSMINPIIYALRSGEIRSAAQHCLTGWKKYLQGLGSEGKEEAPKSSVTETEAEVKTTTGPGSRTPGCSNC
T2 sequence (P10635 whole entry): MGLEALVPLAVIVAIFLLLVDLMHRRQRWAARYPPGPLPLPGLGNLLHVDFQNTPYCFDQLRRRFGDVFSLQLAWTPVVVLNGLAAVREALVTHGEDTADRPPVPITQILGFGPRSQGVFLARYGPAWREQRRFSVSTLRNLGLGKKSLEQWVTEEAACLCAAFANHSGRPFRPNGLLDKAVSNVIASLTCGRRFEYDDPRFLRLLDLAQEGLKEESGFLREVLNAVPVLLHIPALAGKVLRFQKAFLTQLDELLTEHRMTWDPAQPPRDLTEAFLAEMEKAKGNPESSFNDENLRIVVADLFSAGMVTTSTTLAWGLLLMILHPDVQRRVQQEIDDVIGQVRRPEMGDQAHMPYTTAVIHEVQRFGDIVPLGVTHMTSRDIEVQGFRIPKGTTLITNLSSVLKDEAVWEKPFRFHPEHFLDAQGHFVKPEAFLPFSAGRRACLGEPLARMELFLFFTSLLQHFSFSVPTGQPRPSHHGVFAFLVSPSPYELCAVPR

With `Cn1c(C(C)(C)C)cc(=NC(=O)c2cc(C(F)(F)F)ccc2OCC(C)(C)O)n1CC1CCC1` [RNB-61], the half-maximal inhibitory concentration (IC50) was 50000 nM against CYP450 2C9; 15500 nM at CYP450 2D6; 35500 nM at CYP450 3A4; > 50000 nM on GPR55; > 10000 nM on ABHD6 (Table S1, read-out: ABHD6 (Ki, IC50)); > 50000 nM on TRPV1. Besides, the IC50 in series [4] (Table S1, read-out: EMT (Ki, IC50)) is > 10000 nM. The figures for the microsomal CLint in “Microsomal clearance [1]” (Table 1), in “Microsomal clearance [1]” (Table 3) and in “Microsomal clearance [3]” were < 10 µL/min/mg, ≤ 10 µL/min/mg and ≤ 10 µL/min/mg, respectively. For the same molecule, the “inhibition of EC hydrolysis by FAAH” value against FAAH was “did not inhibit”. Also, the EC50 at human Q63R variant CB2R is 0.29 ± 0.07 nM; at human wild type CB2R [2] (Figure 2, normalized to 1 μM CP55940) it was 13.3 ± 1.9 nM; on mouse CB2R, 0.25 ± 0.13 nM; on rat CB2R, 0.13 ± 0.07 nM; on human wild type CB2R [5] (Figure 2) it was 0.33 nM and 1.65 nM. The Emax at human wild type CB2R [2] (percentage normalized to 1 μM CP55940, read-out: Emax β-arrestin2 recruitment) was 80%; on human wild type CB2R [2] (relative to CP55,940, text, read-out: Emax of total β-arrestin2 recruitment) it was ~80%; at human wild type CB2R [5] (setting [6]), 100%. Also, the “inhibition of EC hydrolysis by ABHD6” value on ABHD6 (screening concentration 10 μM) is “did not inhibit”. Also, the “GSH adducts (human liver microsomes)” value in the series “GSH adduct formation” is reported as “did not form any adducts; also recorded: no adducts detected”. Moreover, the “inhibition of cellular AEA uptake (EMT)” value in series [4] (screening concentration 10 μM) is reported as “did not inhibit”. The “Emax [35S]GTPγS binding” value at human wild type CB2R [5] (setting [6]) was “same efficacy (Emax) as CP55,940”.

Usually IC50 stands for the concentration that inhibits the measured activity by half. One may read the microsomal CLint as a measure of how fast metabolising enzymes remove a compound, apart from limits set by blood flow. What is called EC50 is the concentration needed to bring the measured effect to its halfway point. Lower therefore signals a more potent agent. The Emax is the size of the effect at its maximum, as opposed to the concentration needed.

For the origin of these results see article PMC11320734 (ACS Pharmacology & Translational Science, 2024).
